Structures can show the parent of a compound that is named as a salt.
How the values were obtained:
AII receptor [1] = molecular target: T1, AII receptor (Rattus norvegicus, UniProt P25095); experiment: Displacement of 125I[Sar,Ile]AII binding in rat epididymal fat cell membranes
T1 construct: adipose tissue from the epididymal and retroperitoneal depots is quickly excised; from tissue; host or cells: membranes of collagenase-isolated adipocytes from epididymal and retroperitoneal fat of male Sprague-Dawley rats
T1 sequence (P25095 1-359): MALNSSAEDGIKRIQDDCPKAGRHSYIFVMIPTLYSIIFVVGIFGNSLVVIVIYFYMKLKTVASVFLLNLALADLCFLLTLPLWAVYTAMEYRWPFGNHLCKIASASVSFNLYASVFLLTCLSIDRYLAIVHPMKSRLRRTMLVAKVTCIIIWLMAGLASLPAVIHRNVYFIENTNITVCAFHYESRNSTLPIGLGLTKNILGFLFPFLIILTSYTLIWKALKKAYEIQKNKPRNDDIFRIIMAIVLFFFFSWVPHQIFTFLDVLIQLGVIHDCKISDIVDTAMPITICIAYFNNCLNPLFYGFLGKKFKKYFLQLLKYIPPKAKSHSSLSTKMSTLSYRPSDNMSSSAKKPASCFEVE
Source text: The experimental design involves determining the binding characteristics of adipocyte membranes harvested from two different anatomic sites at three different ages. Male Sprague-Dawley rats (Charles River Laboratories, Wilmington, Mass.) are used at 40, 70 and 100 days of age. Rats are killed by carbon dioxide inhalation on the morning of the experiment, and adipose tissue from the epididymal and retroperitoneal depots is quickly excised and placed in cold saline. The spermatic artery and vein are removed from the epididymal fat, and brown fat deposits are dissected away from the retroperitoneal depot. The adipose tissue is weighed, minced into small pieces, and approximately 10 g each transferred to a flask containing 25 ml of Krebs-Ringer-bicarbonate buffer (KRB), 6 mM glucose and 50 mg of collagenase, pH 7.4. […] Intact adipocytes dissociated from the tissue pass freely into waiting tubes, while the undigested tissue is trapped on the screen. The tubes containing the adipocytes are washed an additional 4× with 20 ml each of cold Tris buffer (10 mM Tris HCl, pH 8.0) by first allowing the adipocytes to separate from the digestion medium by flotation, removing the infranatant through polyethylene tubing attached to a syringe, resuspending the cells in the Tris buffer, and repeating this procedure. Adipocyte membranes used for binding studies are prepared as follows. […] Following centrifugation, the fat cake and supernatant are carefully removed, and the pellet resuspended in 1 ml of Tris buffer. Protein content of the high speed pellet is determined, the resuspended protein is either assayed immediately or stored at -75° before binding assays are performed. […] The assay is initiated by the addition of the membrane protein, followed by incubation at 22° C. for 30 minutes in a slowly shaking water bath. Separation of bound from free radioactivity is achieved using any appropriate filtration apparatus. We use either a Millipore or Brandel model harvesting apparatus containing a Durapore or Whatman GF/B filter, followed by 6 additional rinses with 5 ml each of cold saline. The filters are placed in tubes, and radioactivity measured in a gamma scintillation counter programmed to correct for the half-life of the isotope. Using this experimental protocol, both the affinity (KD) and number of binding sites (Bmax) for angiotensin II on the adipocyte membrane can be calculated. The relative affinities of different anatomically distinct adipocyte membranes for a variety of peptide and nonpeptide antagonists can also be determined. […] Concentration ranges can be altered dependent upon the affinity of the particular antagonist for the fat cell membrane receptor.

[2] = type: in vivo, rat; conditions: 15 mg/kg once a day by gavage, two weeks
Description: (§1) Body weight and food intake are monitored daily. At the end of two weeks, the rats are sacrificed and tissues are weighed. Adipocyte membranes are prepared by collagenase digestion, homogenization and centrfugation. […] Of the organs sampled, the combined largest relative and quantitative change in weight was in the adipose tissue.

adipocyte AII receptor = experiment: Epididymal adipocyte AII receptor binding (Bmax) after two weeks oral treatment; type: in vivo, rat; conditions: 4 rats/group, oral once daily for 2 weeks
Description: Body weight and food intake are monitored daily. At the end of two weeks, the rats are sacrificed and tissues are weighed. Adipocyte membranes are prepared by collagenase digestion, homogenization and centrfugation.
Binding is initiated by suspending the adipocyte membranes in 0.25% BSA buffer (bovine serum albumin, 50 mM Tris HCl, 5 mM MgCl2,pH 7.4) to a final concentration of 5 ug protein/10 ul buffer. […] The filters are placed in tubes, and radioactivity measured in a gamma scintillation counter programmed to correct for the half-life of the isotope. Using this experimental protocol, both the affinity (KD) and number of binding sites (Bmax) for angiotensin II on the adipocyte membrane can be calculated.

epididymal adipocytes = experiment: Epididymal adipocyte cell volume after two weeks oral treatment; type: in vivo, rat; conditions: 4 rats/group, oral once daily for 2 weeks
Description: as §1

AII receptor [3] = molecular target: T1, AII receptor; experiment: Displacement of 125I[Sar,Ile]AII binding in rat retroperitoneal fat cell membranes
Source text: The experimental design involves determining the binding characteristics of adipocyte membranes harvested from two different anatomic sites at three different ages. Male Sprague-Dawley rats (Charles River Laboratories, Wilmington, Mass.) are used at 40, 70 and 100 days of age. Rats are killed by carbon dioxide inhalation on the morning of the experiment, and adipose tissue from the epididymal and retroperitoneal depots is quickly excised and placed in cold saline. The spermatic artery and vein are removed from the epididymal fat, and brown fat deposits are dissected away from the retroperitoneal depot. […] Protein content of the high speed pellet is determined, the resuspended protein is either assayed immediately or stored at -75° before binding assays are performed. […] Separation of bound from free radioactivity is achieved using any appropriate filtration apparatus. […] The filters are placed in tubes, and radioactivity measured in a gamma scintillation counter programmed to correct for the half-life of the isotope. Using this experimental protocol, both the affinity (KD) and number of binding sites (Bmax) for angiotensin II on the adipocyte membrane can be calculated. The relative affinities of different anatomically distinct adipocyte membranes for a variety of peptide and nonpeptide antagonists can also be determined. […]

| Compound | IC50 (AII receptor [1]; Epididymal IC50 for displacement of 125I[Sar,Ile]AII binding, rat epididymal fat cell membranes (Table 8)) | Avg. Daily Food Intake, % Change From Control [2] | Avg. Weight Gain, % Change From Control [2] | Epididymal Fat Weight, % Change From Control [2] | Final Body Weight, % Change From Control [2] | Retroperitoneal Fat Weight, % Change From Control [2] | Avg. Daily Food Intake ([2]; n = 6) | Avg. Weight Gain ([2]; n = 6) | Epididymal Fat Weight ([2]; n = 6) | Final Body Weight ([2]; n = 6) | Retroperitoneal Fat Weight ([2]; n = 6) | Bmax, epididymal adipocyte AII receptor binding (adipocyte AII receptor) | Adipocyte Cell Volume (epididymal adipocytes) | IC50 (AII receptor [1]; Inhibitory Constants (IC50) for displacement of 125I[Sar,Ile]AII binding, Epididymal, rat epididymal fat cell membranes, 1 nM radioligand, 1-4 assays) | IC50 (AII receptor [3]) |
| --- | --- | --- | --- | --- | --- | --- | --- | --- | --- | --- | --- | --- | --- | --- | --- |
| CCCCc1nc2ccc([C@@]3(C)C[C@@H]4CCCN4O3)cc2c(=O)n1Cc1ccc(-c2ccccc2-c2nnn[nH]2)cc1 (racemic) [cis-(+/-)-2-butyl-6-(hexahydro-2-methylpyrrolo[1,2-b]isoxazol-2-yl)-3-[[2'-(1H-tetrazol-5-yl)[1,1-biphenyl]-4-yl]methyl]-4(3H)-quinazolinone sodium salt] | 0.0146 µM | -7% | -55% | -17% | -7% | -11% | 30.4 g | 25 g | 4.33 g | 424 g | 4.35 g | 31.8 fmole/mg protein | 187 p1 |  |  |
| Cc1cc(Cn2cnc3c2C[C@@H](C(=O)O)N(C(=O)C(c2ccccc2)c2ccccc2)C3)ccc1N(C)C [((S)-)-[[4-(di-methylamino)-3-methylphenyl]methyl-5-(diphenylacetyl)-4,5,6,7-tetrahydro-1H-imidazo[4,5-c]-pyridine-6-carboxylic acid, reference compound] |  |  |  |  |  |  |  |  |  |  |  |  |  | 173 µM | 242 µM |

From patent US5830909A (American Cyanamid Company, priority 1996, dated 1998)
